Experimental data as given in US20240309003A1, “HETEROCYCLIC COMPOUNDS AS TRIGGERING RECEPTOR EXPRESSED ON MYELOID CELLS 2 AGONISTS AND METHODS OF USE” (Vigil Neuroscience, Inc., priority 2021, published 2024).

Target: T1, human TREM2 (Homo sapiens, UniProt Q9NZC2)
T1 construct: expressed in transfected cells; host or cells: HEK293T
Test: TREM2 agonist potency by cellular phosphorylation of Syk (AlphaLisa) in HEK293T-hTREM2 cells
Format: cell-based
Experimental: In Vitro Measurement of Triggering Receptor Expressed on Myeloid Cells 2 Activity Using Cellular Phosphorylation of Spleen Tyrosine Kinase (“Syk”) Assays
Measurement of TREM2 agonist potency was done using a HEK cell line expressing human TREM2 and DAP12 (HEK293T-hTREM2 cells). Binding of small molecules to, and activation of, TREM2 increases the phosphorylation of Syk. The resultant levels of Syk phosphorylation are measured using a commercial AlphaLisa reagent kit. To perform the assay, HEK-hTREM2 cells were plated at 14,000 cells per well in a 384 well plate, in 25 μL of complete growth media and incubated at 37° C., 5% CO2 for 20-24 hours.
Prior to the assay, test compounds were diluted in the 384 well plates in assay buffer and allowed to equilibrate for 30 minutes. Growth media was removed from cell plates by inversion on blotting paper, and 25 μL of test articles in assay buffer was added to cells. Cells were incubated for 45 minutes at room temperature. After 45 minutes, assay buffer was removed and 10 μL of lysis buffer was added. Plates were shaken for 20 minutes at 350 RPM at room temperature. After complete lysis, AlphaLisa reagents were added to the lysate, and fluourescence intensity was measured using a Perkin Elmer Envision plate reader. Intensities were used to generate a standard curve, and % activation was calculated. Curve fitting was performed using Prism v9 software, log(agonist) vs response-variable slope (four parameters), and EC50s were calculated from the curve fit.
This assay may be used to test any of the compounds described herein to assess and characterize a compound's ability to act as an agonist of TREM2.

[1] = HEK293 cells expressing human TREM2 and DAP12, Table D
[2] = HEK293 cells expressing human TREM2 and DAP12, Table D-2

T1 sequence (Q9NZC2 19-230): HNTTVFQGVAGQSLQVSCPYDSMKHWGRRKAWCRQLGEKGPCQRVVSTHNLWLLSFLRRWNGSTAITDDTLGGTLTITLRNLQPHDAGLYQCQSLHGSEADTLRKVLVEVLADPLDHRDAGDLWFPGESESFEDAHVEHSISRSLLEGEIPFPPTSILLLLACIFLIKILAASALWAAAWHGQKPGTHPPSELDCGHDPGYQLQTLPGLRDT
T1 sequence (O43914 22-113 partner): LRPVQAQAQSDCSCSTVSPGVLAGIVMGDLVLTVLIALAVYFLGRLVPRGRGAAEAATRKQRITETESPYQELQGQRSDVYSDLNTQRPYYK

Row | Structure (SMILES) | EC50 [1] [nM] | EC50 [2] [nM]
1 | COc1cccc([C@@H]2C[C@H](c3nc(-c4ccc(F)cc4F)c4nc(C)c(C)nc4n3)CCO2)n1 [Example 164, 4-(2,4-difluorophenyl)-2-((2S,4R)-2-(6-methoxypyridin-2-yl)tetrahydro-2H-pyran-4-yl)-6,7-dimethylpteridine] | 500 to 3000 | 
2 | Cc1cnc2c(C34CC(C)(C3)C4)nc([C@H]3C[C@@H](C)O[C@@H](c4cnn(C5CC5)c4)C3)nc2n1 [Example 151, 2-((2R,4S,6R)-2-(1-cyclopropyl-1H-pyrazol-4-yl)-6-methyltetrahydro-2H-pyran-4-yl)-7-methyl-4-(3-methylbicyclo[1.1.1]pentan-1-yl)pteridine] | 500 to 3000 | 
3 | Cc1ccc2c(-c3ccc(F)cc3F)cc([C@H]3CCO[C@@H](c4cnn(C5CC5)c4)C3)nc2n1 [Example 231] | 50 to 500 | 
4 | Cc1ccc2c(C34CC(C(F)(F)F)(C3)C4)nc([C@H]3C[C@@H](C)O[C@@H](c4cnn(C5CC5)c4)C3)nc2n1 [Example 220, 2-((2R,4S,6R)-2-(1-cyclopropyl-1H-pyrazol-4-yl)-6-methyltetrahydro-2H-pyran-4-yl)-7-methyl-4-(3-(trifluoromethyl)bicyclo[1.1.1]pentan-1-yl)pyrido[2,3-d]pyrimidine] | 500 to 3000 | 
5 | Cc1nc2nc([C@@H]3CCO[C@@H](c4cnn(C5CC5)c4)C3)cc(-c3ccc(Cl)cc3F)c2nc1C [Example 223, 8-(4-chloro-2-fluorophenyl)-6-((2R,4R)-2-(1-cyclopropyl-1H-pyrazol-4-yl)tetrahydro-2H-pyran-4-yl)-2,3-dimethylpyrido[2,3-b]pyrazine] | 50 to 500 | 
6 | Cc1ccc2c(C34CC(C(F)(F)F)(C3)C4)nc([C@H]3CCO[C@@H](c4cnn(C5CC5)c4)C3)nc2n1 [Example 221, 2-((2R,4S)-2-(1-cyclopropyl-1H-pyrazol-4-yl)tetrahydro-2H-pyran-4-yl)-7-methyl-4-(3-(trifluoromethyl)bicyclo[1.1.1]pentan-1-yl)pyrido[2,3-d]pyrimidine] | < 50 | 
7 | [2H]C1([2H])C[C@@H](c2nc(-c3ccc(F)cc3F)c3nc(C)c(C)nc3n2)C[C@@]([2H])(c2cnn(C3CC3)c2)O1 (single isomer, unassigned) [Example 191] | 3000 to 100000 | 
8 | Cc1nc2cc([C@@H]3CCO[C@H](c4cnn(C5CC5)c4)C3)cc(-c3ccc(Cl)cc3F)c2nc1C [Example 227, 5-(4-chloro-2-fluorophenyl)-7-((2S,4R)-2-(1-cyclopropyl-1H-pyrazol-4-yl)tetrahydro-2H-pyran-4-yl)-2,3-dimethylquinoxaline] | 500 to 3000 | 
9 | Cc1nc2nc(N3CCN(C)C(c4cnn(C5CC5)c4)C3)nc(-c3ccc(Cl)cc3F)c2nc1C (stereo not drawn) [Example 205, 4-(4-chloro-2-fluorophenyl)-2-(3-(1-cyclopropyl-1H-pyrazol-4-yl)-4-methylpiperazin-1-yl)-6,7-dimethylpteridine] | < 50 | 
10 | Cc1ccc(-c2nc(N3C[C@@H](C)O[C@@H](c4cnn(C5CC5)c4)C3)nc3nc(C)c(C)nc23)o1 [Example 243, (2S,6R)-2-(1-cyclopropyl-1H-pyrazol-4-yl)-4-(6,7-dimethyl-4-(5-methylfuran-2-yl)pteridin-2-yl)-6-methylmorpholine] | 50 to 500 | 
11 | Cc1ccc2c(-c3ccc(F)cc3F)nc([C@H]3CCO[C@@H](c4cnn(C5CC5)c4)C3)nc2n1 [Example 215, 2-((2R,4S)-2-(1-cyclopropyl-1H-pyrazol-4-yl)tetrahydro-2H-pyran-4-yl)-4-(2,4-difluorophenyl)-7-methylpyrido[2,3-d]pyrimidine] | 50 to 500 | 
12 | Cc1nc2nc([C@H]3CCO[C@@H](c4cnn(C5CC5)c4)C3)nc(C3CCCCC3)c2nc1C [Example 247, 4-cyclohexyl-2-((2R,4S)-2-(1-cyclopropyl-1H-pyrazol-4-yl)tetrahydro-2H-pyran-4-yl)-6,7-dimethylpteridine] | < 50 | 
13 | [2H]C1([2H])C[C@H](c2nc(-c3ccc(Cl)cc3F)c3nc(C)c(C)nc3n2)C[C@H](c2cnn(C3CC3)c2)O1 [Example 188, 4-(4-chloro-2-fluorophenyl)-2-((2R,4S)-2-(1-cyclopropyl-1H-pyrazol-4-yl)tetrahydro-2H-pyran-4-yl-6,6-d2)-6,7-dimethylpteridine] | < 50 | 
14 | [2H]C1([2H])C[C@H](c2nc(-c3ccc(Cl)cc3F)c3nc(C)c(C)nc3n2)C[C@]([2H])(c2cnn(C3CC3)c2)O1 [Example 192, 4-(4-chloro-2-fluorophenyl)-2-((2R,4S)-2-(1-cyclopropyl-1H-pyrazol-4-yl)tetrahydro-2H-pyran-4-yl-2,6,6-d3)-6,7-dimethylpteridine] | < 50 | 
15 | Cc1cc2nc([C@H]3CCO[C@@H](c4cnn(C5CC5)c4)C3)nc(-c3ccc(Cl)cc3F)c2nc1C [Example 222, 4-(4-chloro-2-fluorophenyl)-2-((2R,4S)-2-(1-cyclopropyl-1H-pyrazol-4-yl)tetrahydro-2H-pyran-4-yl)-6,7-dimethylpyrido[3,2-d]pyrimidine] | 500 to 3000 | 
16 | [2H]C([2H])([2H])c1nc2nc([C@H]3CCO[C@@H](c4cnn(C5CC5)c4)C3)nc(-c3ccc(Cl)cc3F)c2nc1C([2H])([2H])[2H] [Example 181, 4-(4-chloro-2-fluorophenyl)-2-((2R,4S)-2-(1-cyclopropyl-1H-pyrazol-4-yl)tetrahydro-2H-pyran-4-yl)-6,7-bis(methyl-d3)pteridine] | < 50 | 
17 | Cc1cnc2c(-c3ccc(F)cc3F)nc(N3C[C@@H](c4cnn(C5CC5)c4)O[C@@H](C)C3)nc2n1 [Example 114, (2R,6S)-2-(1-cyclopropyl-1H-pyrazol-4-yl)-4-(4-(2,4-difluorophenyl)-7-methylpteridin-2-yl)-6-methylmorpholine] | 50 to 500 | 

Now from value to compound:

Row | EC50 [1] [nM] | EC50 [2] [nM] | Structure (SMILES)
18 |  | 50 to 500 | Cc1nc2nc([C@H]3CCO[C@H](c4cnc(C5CC5)o4)C3)nc(-c3ccc(F)cc3F)c2nc1C [Example I-1698, 2-cyclopropyl-5-[(2S,4S)-4-[4-(2,4-difluorophenyl)-6,7-dimethyl-pteridin-2-yl]tetrahydropyran-2-yl]oxazole]
19 |  | < 50 | Cc1nc2nc([C@H]3CCO[C@@H](c4cnn(C5CC5)c4)C3)nc(-c3ccc(C(F)(F)F)cc3F)c2nc1C(F)F [Example I-1593, 2-[(2R,4S)-2-(1-cyclopropylpyrazol-4-yl)tetrahydropyran-4-yl]-6-(difluoromethyl)-4-[2-fluoro-4-(trifluoromethyl)phenyl]-7-methyl-pteridine]
20 |  | 50 to 500 | Fc1cc(Cl)ccc1-c1nc([C@@H]2CCO[C@H](c3cnn(C4CC4)c3)C2)nc2nc(CC(F)(F)F)cnc12 [Example I-1338, 4-(4-chloro-2-fluoro-phenyl)-2-[(2S,4R)-2-(1-cyclopropylpyrazol-4-yl)tetrahydropyran-4-yl]-7-(2,2,2-trifluoroethyl)pteridine]
21 |  | < 50 | Cc1nc2nc(N3C[C@@H](C)O[C@@H](c4cnn(C5CC5)c4F)C3)nc(-c3ccc(F)cc3F)c2nc1C [Example I-1401, (2S,6R)-2-(1-cyclopropyl-5-fluoro-pyrazol-4-yl)-4-[4-(2,4-difluorophenyl)-6,7-dimethyl-pteridin-2-yl]-6-methyl-morpholine]
22 |  | < 50 | Cc1nc2cc([C@H]3CCO[C@@H](c4cnn(C5CC5)c4)C3)nc(-c3ccc(F)cc3F)c2nc1C(F)F [Example I-1552, 7-((2R,4S)-2-(1-cyclopropyl-1H-pyrazol-4-yl)tetrahydro-2H-pyran-4-yl)-3-(difluoromethyl)-5-(2,4-difluorophenyl)-2-methylpyrido[3,4-b]pyrazine]
23 |  | 500 to 3000 | Cc1nc2nc([C@H]3CCO[C@@H](c4cnn(C5CC5)c4)C3)nc(-c3ccc(C(C)C)cc3F)c2nc1C [Example I-1192]
24 |  | 500 to 3000 | Cc1nc2cc([C@H]3CCO[C@@H](c4cnn(C5CC5)c4)C3)nc(-c3ccc(F)cc3F)c2nc1CC#N [Example I-1451, 2-(7-((2R,4S)-2-(1-cyclopropyl-1H-pyrazol-4-yl)tetrahydro-2H-pyran-4-yl)-5-(2,4-difluorophenyl)-2-methylpyrido[3,4-b]pyrazin-3-yl)acetonitrile]
25 |  | < 50 | Cc1nc2nc(N3C[C@@H](C)O[C@@H](c4cnn(C(F)F)c4)C3)nc(-c3ccc(F)cc3F)c2nc1C [Example I-1472, (2S,6R)-2-[1-(difluoromethyl)pyrazol-4-yl]-4-[4-(2,4-difluorophenyl)-6,7-dimethyl-pteridin-2-yl]-6-methyl-morpholine]
26 |  | 50 to 500 | Cc1nc2nc(N3C[C@@H](C)O[C@@H](c4ccn(C5CC5)n4)C3)nc(-c3ccc(F)cc3F)c2nc1C [Example I-1265, (2R,6R)-2-(1-cyclopropylpyrazol-3-yl)-4-[4-(2,4-difluorophenyl)-6,7-dimethyl-pteridin-2-yl]-6-methyl-morpholine]
27 |  | 500 to 3000 | CN(C)C(=O)c1nc2c(-c3ccc(F)cc3F)nc(C3CCO[C@@H](c4cnn(C5CC5)c4)C3)nc2nc1C1CC1 (stereo partly drawn) [Example I-1603, 7-cyclopropyl-2-[(2R)-2-(1-cyclopropylpyrazol-4-yl)tetrahydropyran-4-yl]-4-(2,4-difluorophenyl)-N,N-dimethyl-pteridine-6-carboxamide]
